Biological target: T1, FlK (fluoroacetyl-CoA thioesterase) (Streptantibioticus cattleyicolor, UniProt Q1EMV2)
T1 sequence (Q1EMV2 1-139): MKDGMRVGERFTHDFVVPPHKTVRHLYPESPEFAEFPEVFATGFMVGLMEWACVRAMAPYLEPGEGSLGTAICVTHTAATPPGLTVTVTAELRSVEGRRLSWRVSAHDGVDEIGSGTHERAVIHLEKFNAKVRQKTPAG
Experiment: pre-steady-state rapid chemical quench, HPLC of CoA release
Type: biochemical
Details: Bis-Tris 100 mM pH 6.0; covalent acyl-enzyme on Glu 50

CC(C)(COP(=O)(O)OP(=O)(O)OC[C@H]1O[C@@H](n2cnc3c(N)ncnc32)[C@H](O)[C@@H]1OP(=O)(O)O)[C@@H](O)C(=O)NCCC(=O)NCCSC(=O)CF [fluoroacetyl-CoA]
pre-steady-state rapid chemical quench, HPLC of CoA release: we observed a burst phase of product formation consistent with enzyme acylation

Source: article PMC3985765 (Biochemistry, 2014)
